According to the NIST ThermoML archive (doi:10.1021/je050200w):

Test: xn = mol fraction of the nth substance listed
Details: 101 kPa, Liquid

CCCCCCCCCCO [decan-1-ol] + CCCCCCCCO
Details	mass density [kg/m3]	viscosity [mPa·s]
283.15 K, x2 = 0	836.6	22.06
283.15 K, x2 = 0.0995	836.1	21.14
283.15 K, x2 = 0.1998	835.7	20.23
283.15 K, x2 = 0.3007	835.3	19.39
283.15 K, x2 = 0.4001	834.9	18.46
283.15 K, x2 = 0.4996	834.5	17.59
283.15 K, x2 = 0.5988	834	16.69
283.15 K, x2 = 0.6998	833.6	15.82
283.15 K, x2 = 0.8001	833.1	15.11
283.15 K, x2 = 0.9	832.8	14.2
288.15 K, x2 = 0	833.3	17.99
288.15 K, x2 = 0.0995	832.7	17.18
288.15 K, x2 = 0.1998	832.3	16.53
288.15 K, x2 = 0.3007	831.9	15.64
288.15 K, x2 = 0.4001	831.5	15.11
288.15 K, x2 = 0.4996	831.1	14.23
288.15 K, x2 = 0.5988	830.6	13.71
288.15 K, x2 = 0.6998	830.2	13.02
288.15 K, x2 = 0.8001	829.7	12.25
288.15 K, x2 = 0.9	829.4	11.75
293.15 K, x2 = 0	829.9	14.39
293.15 K, x2 = 0.0995	829.3	13.84
293.15 K, x2 = 0.1998	828.9	13.31
293.15 K, x2 = 0.3007	828.5	12.67
293.15 K, x2 = 0.4001	828.1	12.26
293.15 K, x2 = 0.4996	827.7	11.59
293.15 K, x2 = 0.5988	827.2	11.05
293.15 K, x2 = 0.6998	826.9	10.32
293.15 K, x2 = 0.8001	826.3	9.75
293.15 K, x2 = 0.9	825.9	9.008
298.15 K, x2 = 0	826.5	11.74
298.15 K, x2 = 0.0995	825.9	11.31
298.15 K, x2 = 0.1998	825.5	10.94
298.15 K, x2 = 0.3007	825.1	10.53
298.15 K, x2 = 0.4001	824.7	10.07
298.15 K, x2 = 0.4996	824.3	9.596
298.15 K, x2 = 0.5988	823.8	9.244
298.15 K, x2 = 0.6998	823.4	8.756
298.15 K, x2 = 0.8001	822.8	8.308
298.15 K, x2 = 0.9	822.3	7.812
303.15 K, x2 = 0	823	9.561
303.15 K, x2 = 0.0995	822.5	9.231
303.15 K, x2 = 0.1998	822.1	8.924
303.15 K, x2 = 0.3007	821.7	8.589
303.15 K, x2 = 0.4001	821.3	8.213
303.15 K, x2 = 0.4996	820.8	7.898
303.15 K, x2 = 0.5988	820.4	7.57
303.15 K, x2 = 0.6998	820	7.259
303.15 K, x2 = 0.8001	819.4	6.992
303.15 K, x2 = 0.9	818.9	6.655
308.15 K, x2 = 0	819.6	8
308.15 K, x2 = 0.0995	819.1	7.768
308.15 K, x2 = 0.1998	818.7	7.492
308.15 K, x2 = 0.3007	818.3	7.211
308.15 K, x2 = 0.4001	817.8	6.961
308.15 K, x2 = 0.4996	817.4	6.672
308.15 K, x2 = 0.5988	816.9	6.389
308.15 K, x2 = 0.6998	816.5	6.143
308.15 K, x2 = 0.8001	815.9	5.851
308.15 K, x2 = 0.9	815.5	5.653
313.15 K, x2 = 0	816.3	6.831
313.15 K, x2 = 0.0995	815.6	6.649
313.15 K, x2 = 0.1998	815.2	6.408
313.15 K, x2 = 0.3007	814.8	6.189
313.15 K, x2 = 0.4001	814.4	5.979
313.15 K, x2 = 0.4996	813.9	5.711
313.15 K, x2 = 0.5988	813.5	5.513
313.15 K, x2 = 0.6998	813	5.287
313.15 K, x2 = 0.8001	812.4	5.057
313.15 K, x2 = 0.9	812	4.784
